Measured values reported in ChEMBL document CHEMBL1140338, “Range and sensitivity as descriptors of molecular property spaces in dynamic QSAR analyses” (J Med Chem, 2005).

Experiments:
[1] = Binding affinity for alpha 1a adrenoceptor
[2] = Binding affinity for alpha 1b adrenoceptor
[3] = Binding affinity for alpha 1d adrenoceptor

Structure (SMILES)	pK [1]	pK [2]	pK [3]
COc1cc2nc(N3CCN(C(=O)c4ccco4)[C@H]4CCCC[C@H]43)nc(N)c2cc1OC	7.92	9.89	8.49
COc1cc2nc(N3CCN(C(=O)COc4c(OC)cccc4C(C)C)CC3)nc(N)c2cc1OC	8.72	9.52	8.59
COc1cc2nc(N3CCN(C(=O)C4COc5ccccc5O4)CC3)nc(N)c2cc1OC (stereo unspecified)		9	8.4
O=C(NC1CCN(CCc2c[nH]c3ccccc23)CC1)c1ccccc1	8.4	7.4	6.8
O=C(CCCN1CCC2(CC1)C(=O)NCN2c1ccccc1)c1ccc(F)cc1	8.1	9.3	7.89
COc1cc2c(cc1OC)CN(c1cc(N)c3cc(OC)c(OC)cc3n1)CC2	10.4	10.1	10.4
COC(=O)C1=C(C)NC(C)=C(C(=O)OCCCN2CCC(c3ccccc3)(c3ccccc3)CC2)[C@H]1c1cccc([N+](=O)[O-])c1	9.82	7.26	7
COc1cc2nc(N(C)CCCNC(=O)C3CCCO3)nc(N)c2cc1OC (stereo unspecified)	8	8	8.5
COC(=O)[C@H]1[C@H]2C[C@H]3c4[nH]c5ccccc5c4CCN3C[C@@H]2CC[C@@H]1O	6.85	6.29	6.6
COc1ccccc1N1CCN(CCCNC(=O)c2cccc3c(=O)c(C)c(-c4ccccc4)oc23)CC1	9		8.6
CC(C)(Cc1c[nH]c2ccc(Cl)cc12)NCCOc1ccccc1OCC1CC1	9.22	7.8	7.8
COc1cccc2c1CC[C@H]1CN(CCn3c(=O)[nH]c4c(sc5cccnc54)c3=O)C[C@@H]21	9.66	8.16	9.01
COc1ccccc1N1CCN(CCN(C(=O)C2CCCCC2)c2ccccn2)CC1	7.24	6.73	7.2
C[C@H](Cc1cc2c(c(C(N)=O)c1)N(CCCO)CC2)NCCOc1ccccc1OCC(F)(F)F	10.4	7.7	8.7
COc1c(C)c(C)c(O)c(C)c1CN(C)CCOc1cc(C)c(O)cc1C(C)C	9.4	8.92	8.92
COC(=O)C1=C(C)NC(C)=C(C(=O)NCCCN2CCC(c3ccccc3)(c3ccccc3)CC2)C1c1ccc([N+](=O)[O-])cc1 (stereo unspecified)	9.64	7.89	7.18
COc1cc2c(cc1O)C1Cc3ccc(OC)c(O)c3CN1CC2 (stereo unspecified)	6.21	6.44	7.6
CCCC(=O)N1CCCN(c2nc(N)c3cc(OC)c(OC)cc3n2)CC1	9.3	9	9
Cc1ccc(N(CC2=NCCN2)c2cccc(O)c2)cc1	8.8	8.1	8.1
COc1cccc(OC)c1OCCNCC1CSc2ccccc2O1 (stereo unspecified)	9.7	8.4	9.4
COc1cc2nc(N3CCN(C(=O)C4CCCO4)CC3)nc(N)c2cc1OC (stereo unspecified)	8.2		8.6
COc1ccccc1N1CCN(CCCNc2c(C)c(=O)n(C)c(=O)n2C)CC1	9.2	7.4	8
CCC1=C(C(N)=O)[C@H](c2ccc([N+](=O)[O-])cc2)C(C(=O)NCCCN2CCC(c3ccccc3)(c3ccccc3)CC2)=C(COCCN)N1	9.19	6.49	6.4
C[C@H](CN1CCN(c2cc(F)c(F)cc2F)CC1)N1C(=O)CC2(CCCC2)CC1=O	6.53	6.72	8.8
COc1ccccc1N1CCN(CCCCN2C(=O)c3ccccc3C2=O)CC1	8.7	7.82	9.1
C=Cc1sc2ccc(Cl)c3c2c1CN(C)CC3	7.36	7.2	8.28
CC1=C(C(N)=O)[C@H](c2ccc([N+](=O)[O-])cc2)C(C(=O)NCCCCN2CCC(c3ccccc3)(c3ccccc3)CC2)=C(C)N1	8.72	6.48	6.4
COc1ccccc1N1CCN(CCN2C(=O)CC3(CCCC3)CC2=O)CC1	6.6	6.2	8.2
Cc1c[nH]c(=O)n(CCCN2CCN(c3ccc(F)cc3OCC(F)(F)F)CC2)c1=O	9	7.1	7
COc1cccc(OC)c1OCCNCC1COc2ccccc2O1 (stereo unspecified)	9.8		9.6
